Source: patent publication US20150105252A1, “SUBSTITUTED PYRAZOLES AS HERBICIDES” (E I DU PONT DE NEMOURS AND COMPANY, priority 2013, published 2015)

Columns and labels:
barnyardgrass [1] = experiment: Test A preemergence; type: in vivo, Echinochloa crus-galli; settings: 0 to 100 scale
Summary of the method: (§1)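 After sowing in a sand–loam mix, pots received compound preemergence by directed soil spray, or postemergence once plants reached the one- to two-leaf stage (2–10 cm). Formulation contained surfactant in a non-phytotoxic solvent. Injury was scored visually after ~10 greenhouse days, 0–100 scale.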

crabgrass, large [2] = experiment: Test A preemergence; type: in vivo, Digitaria sanguinalis; settings: 0 to 100 scale
Summary of the method: as §1

foxtail, giant [3] = experiment: Test A preemergence; type: in vivo, Setaria faberii; settings: 0 to 100 scale
Summary of the method: as §1

morningglory [4] = experiment: Test A preemergence; type: in vivo, Ipomoea spp.; settings: 0 to 100 scale
Summary of the method: as §1

pigweed [5] = experiment: Test A preemergence; type: in vivo, Amaranthus retroflexus; settings: 0 to 100 scale
Summary of the method: as §1

velvetleaf [6] = experiment: Test A preemergence; type: in vivo, Abutilon theophrasti; settings: 0 to 100 scale
Summary of the method: as §1

wheat [7] = experiment: Test A preemergence; type: in vivo, Triticum aestivum; settings: 0 to 100 scale
Summary of the method: as §1

corn [8] = experiment: Test A preemergence; type: in vivo, Zea mays; settings: 0 to 100 scale
Summary of the method: as §1

barnyardgrass [9] = experiment: Test A postemergence; type: in vivo, Echinochloa crus-galli; settings: Postemergence
Summary of the method: as §1

crabgrass, large [10] = experiment: Test A postemergence; type: in vivo, Digitaria sanguinalis
Summary of the method: as §1

foxtail, giant [11] = experiment: Test A postemergence; type: in vivo, Setaria faberii
Summary of the method: as §1

morningglory [12] = experiment: Test A postemergence; type: in vivo, Ipomoea spp.
Summary of the method: as §1

pigweed [13] = experiment: Test A postemergence; type: in vivo, Amaranthus retroflexus
Summary of the method: as §1

velvetleaf [14] = experiment: Test A postemergence; type: in vivo, Abutilon theophrasti
Summary of the method: as §1

wheat [15] = experiment: Test A postemergence; type: in vivo, Triticum aestivum
Summary of the method: as §1

corn [16] = experiment: Test A postemergence; type: in vivo, Zea mays
Summary of the method: as §1

rice = experiment: Test C flooded paddy test; type: in vivo, Oryza sativa; settings: Flood
Summary of the method: (§2)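 Visual injury ratings against untreated controls, taken 13 to 15 days after compound was added to paddy water standing 3 cm above the soil.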

sedge, umbrella = experiment: Test C flooded paddy test; type: in vivo, Cyperus difformis; settings: Flood
Summary of the method: as §2

ducksalad = experiment: Test C flooded paddy test; type: in vivo, Heteranthera limosa; settings: Flood
From the text: At time of treatment, test pots were flooded to 3 cm above the soil surface, treated by application of test compounds directly to the paddy water, and then maintained at that water depth for the duration of the test. Treated plants and controls were maintained in a greenhouse for 13 to 15 days, after which time all species were compared to controls and visually evaluated. […] A dash (-) response means no test result.

barnyardgrass [17] = experiment: Test C flooded paddy test; type: in vivo, Echinochloa crus-galli; settings: Flood
Summary of the method: as §2

[18] = Preemergence, 500 g ai/ha, 0 no effect, 100 complete control
[19] = preemergence, 125 g ai/ha, visual injury, approx. 10 days
[20] = 125 g ai/ha, 0 to 100 scale, 0 no effect, 100 complete control
[21] = 500 g ai/ha, visual rating after approx. 10 days, 0 to 100 scale (0 no effect, 100 complete control)
[22] = Postemergence, 500 g ai/ha, visual rating after approx. 10 days, 0 to 100 scale (0 no effect, 100 complete control)
[23] = postemergence, 125 g ai/ha, about 10 days, visual rating on 0 to 100 scale (0 no effect, 100 complete control)
[24] = 31 g ai/ha, scale 0 to 100 (0 no effect, 100 complete control)
[25] = 62 g ai/ha, scale 0 to 100 (0 no effect, 100 complete control)
[26] = Preemergence, 1000 g ai/ha, 0 no effect, 100 complete control
[27] = Postemergence, 1000 g ai/ha, visual rating after approx. 10 days, 0 to 100 scale (0 no effect, 100 complete control)

CNC(=O)c1cc(C)n(Cc2cccc(OC(F)(F)F)c2)n1 [Compound 3]
Barnyardgrass plant response rating (barnyardgrass [1]; [18]): 0 | Barnyardgrass plant response rating (barnyardgrass [1]; [19]): 0 | Crabgrass, Large plant response rating (crabgrass, large [2]; [18]): 30 | Crabgrass, Large plant response rating (crabgrass, large [2]; [19]): 0 | Foxtail, Giant plant response rating (foxtail, giant [3]; [18]): 20 | Foxtail, Giant plant response rating (foxtail, giant [3]; [19]): 0 | Morningglory plant response rating (morningglory [4]; [18]): 0 | Morningglory plant response rating (morningglory [4]; [19]): 0 | Pigweed plant response rating (pigweed [5]; [18]): 100 | Pigweed plant response rating (pigweed [5]; [19]): 0 | Velvetleaf plant response rating (velvetleaf [6]; [18]): 0 | Velvetleaf plant response rating (velvetleaf [6]; [19]): 0 | Wheat plant response rating (wheat [7]; [19]): 0 | Corn plant response rating (corn [8]; [18]): 0 | Corn plant response rating (corn [8]; [19]): 0 | Barnyardgrass plant response rating (barnyardgrass [9]; [20]): 0 | Barnyardgrass plant response rating (barnyardgrass [9]; [21]): 0 | Crabgrass, Large plant response rating (crabgrass, large [10]; [22]): 10 | Crabgrass, Large plant response rating (crabgrass, large [10]; [23]): 0 | Foxtail, Giant plant response rating (foxtail, giant [11]; [22]): 0 | Foxtail, Giant plant response rating (foxtail, giant [11]; [23]): 0 | Morningglory plant response rating (morningglory [12]; [22]): 20 | Morningglory plant response rating (morningglory [12]; [23]): 10 | Pigweed plant response rating (pigweed [13]; [22]): 70 | Pigweed plant response rating (pigweed [13]; [23]): 20 | Velvetleaf plant response rating (velvetleaf [14]; [22]): 20 | Velvetleaf plant response rating (velvetleaf [14]; [23]): 0 | Wheat plant response rating (wheat [15]; [22]): 0 | Wheat plant response rating (wheat [15]; [23]): 0 | Corn plant response rating (corn [16]; [22]): 10 | Corn plant response rating (corn [16]; [23]): 0 | Plant response rating, Rice (rice; [24]): 0 | Plant response rating, Rice (rice; [25]): 0 | Plant response rating, Rice (rice; 125 g ai/ha, scale 0 to 100): 0 | Plant response rating, Rice (rice; 250 g ai/ha, scale 0 to 100): 0 | Plant response rating, Sedge, Umbrella (sedge, umbrella; [24]): 0 | Plant response rating, Sedge, Umbrella (sedge, umbrella; [25]): 0 | Plant response rating, Sedge, Umbrella (sedge, umbrella; 125 g ai/ha, scale 0 to 100): 0 | Plant response rating, Sedge, Umbrella (sedge, umbrella; 250 g ai/ha, scale 0 to 100): 0 | Plant response rating, Ducksalad (ducksalad; [24]): 40 | Plant response rating, Ducksalad (ducksalad; [25]): 50 | Plant response rating, Ducksalad (ducksalad; 125 g ai/ha, scale 0 to 100): 50 | Plant response rating, Ducksalad (ducksalad; 250 g ai/ha, scale 0 to 100): 60 | Plant response rating, Barnyardgrass (barnyardgrass [17]; [24]): 0 | Plant response rating, Barnyardgrass (barnyardgrass [17]; [25]): 0 | Plant response rating, Barnyardgrass (barnyardgrass [17]; 125 g ai/ha, scale 0 to 100): 0 | Plant response rating, Barnyardgrass (barnyardgrass [17]; 250 g ai/ha, scale 0 to 100): 0

CCNC(=O)c1cc(C)n(Cc2cccc(OC(F)(F)F)c2)n1 [Compound 4]
Barnyardgrass plant response rating (barnyardgrass [1]; [18]): 50 | Barnyardgrass plant response rating (barnyardgrass [1]; [19]): 0 | Crabgrass, Large plant response rating (crabgrass, large [2]; [18]): 90 | Crabgrass, Large plant response rating (crabgrass, large [2]; [19]): 40 | Foxtail, Giant plant response rating (foxtail, giant [3]; [18]): 60 | Foxtail, Giant plant response rating (foxtail, giant [3]; [19]): 0 | Morningglory plant response rating (morningglory [4]; [18]): 20 | Morningglory plant response rating (morningglory [4]; [19]): 0 | Pigweed plant response rating (pigweed [5]; [18]): 100 | Pigweed plant response rating (pigweed [5]; [19]): 50 | Velvetleaf plant response rating (velvetleaf [6]; [18]): 10 | Velvetleaf plant response rating (velvetleaf [6]; [19]): 0 | Wheat plant response rating (wheat [7]; [19]): 0 | Corn plant response rating (corn [8]; [18]): 0 | Corn plant response rating (corn [8]; [19]): 0 | Barnyardgrass plant response rating (barnyardgrass [9]; [20]): 10 | Barnyardgrass plant response rating (barnyardgrass [9]; [21]): 40 | Crabgrass, Large plant response rating (crabgrass, large [10]; [22]): 50 | Crabgrass, Large plant response rating (crabgrass, large [10]; [23]): 20 | Foxtail, Giant plant response rating (foxtail, giant [11]; [22]): 30 | Foxtail, Giant plant response rating (foxtail, giant [11]; [23]): 10 | Morningglory plant response rating (morningglory [12]; [22]): 90 | Morningglory plant response rating (morningglory [12]; [23]): 30 | Pigweed plant response rating (pigweed [13]; [22]): 80 | Pigweed plant response rating (pigweed [13]; [23]): 70 | Velvetleaf plant response rating (velvetleaf [14]; [22]): 30 | Velvetleaf plant response rating (velvetleaf [14]; [23]): 10 | Wheat plant response rating (wheat [15]; [22]): 0 | Wheat plant response rating (wheat [15]; [23]): 0 | Corn plant response rating (corn [16]; [22]): 40 | Corn plant response rating (corn [16]; [23]): 10 | Plant response rating, Rice (rice; [24]): 0 | Plant response rating, Rice (rice; [25]): 0 | Plant response rating, Rice (rice; 125 g ai/ha, scale 0 to 100): 0 | Plant response rating, Rice (rice; 250 g ai/ha, scale 0 to 100): 0 | Plant response rating, Sedge, Umbrella (sedge, umbrella; [24]): 0 | Plant response rating, Sedge, Umbrella (sedge, umbrella; [25]): 0 | Plant response rating, Sedge, Umbrella (sedge, umbrella; 125 g ai/ha, scale 0 to 100): 0 | Plant response rating, Sedge, Umbrella (sedge, umbrella; 250 g ai/ha, scale 0 to 100): 60 | Plant response rating, Ducksalad (ducksalad; [24]): 0 | Plant response rating, Ducksalad (ducksalad; [25]): 40 | Plant response rating, Ducksalad (ducksalad; 125 g ai/ha, scale 0 to 100): 50 | Plant response rating, Ducksalad (ducksalad; 250 g ai/ha, scale 0 to 100): 60 | Plant response rating, Barnyardgrass (barnyardgrass [17]; [24]): 0 | Plant response rating, Barnyardgrass (barnyardgrass [17]; [25]): 0 | Plant response rating, Barnyardgrass (barnyardgrass [17]; 125 g ai/ha, scale 0 to 100): 0 | Plant response rating, Barnyardgrass (barnyardgrass [17]; 250 g ai/ha, scale 0 to 100): 0

CCCc1cc(C(=O)NCC)nn1Cc1cccc(C(F)(F)F)c1 [Compound 29]
Barnyardgrass plant response rating (barnyardgrass [1]; [26]): 50 | Crabgrass, Large plant response rating (crabgrass, large [2]; [26]): 100 | Foxtail, Giant plant response rating (foxtail, giant [3]; [26]): 80 | Morningglory plant response rating (morningglory [4]; [26]): 60 | Pigweed plant response rating (pigweed [5]; [26]): 90 | Velvetleaf plant response rating (velvetleaf [6]; [26]): 40 | Wheat plant response rating (wheat [7]; [26]): 10 | Corn plant response rating (corn [8]; [26]): 0 | Barnyardgrass plant response rating (barnyardgrass [9]; 1000 g ai/ha, visual rating after approx. 10 days, 0 to 100 scale (0 no effect, 100 complete control)): 80 | Crabgrass, Large plant response rating (crabgrass, large [10]; [27]): 70 | Foxtail, Giant plant response rating (foxtail, giant [11]; [27]): 90 | Morningglory plant response rating (morningglory [12]; [27]): 90 | Pigweed plant response rating (pigweed [13]; [27]): 100 | Velvetleaf plant response rating (velvetleaf [14]; [27]): 100 | Wheat plant response rating (wheat [15]; [27]): 40 | Corn plant response rating (corn [16]; [27]): 50 | Plant response rating, Rice (rice; [24]): 0 | Plant response rating, Rice (rice; [25]): 0 | Plant response rating, Rice (rice; 125 g ai/ha, scale 0 to 100): 0 | Plant response rating, Rice (rice; 250 g ai/ha, scale 0 to 100): 0 | Plant response rating, Sedge, Umbrella (sedge, umbrella; [24]): 0 | Plant response rating, Sedge, Umbrella (sedge, umbrella; [25]): 0 | Plant response rating, Sedge, Umbrella (sedge, umbrella; 125 g ai/ha, scale 0 to 100): 75 | Plant response rating, Sedge, Umbrella (sedge, umbrella; 250 g ai/ha, scale 0 to 100): 80 | Plant response rating, Ducksalad (ducksalad; [24]): 0 | Plant response rating, Ducksalad (ducksalad; [25]): 0 | Plant response rating, Ducksalad (ducksalad; 125 g ai/ha, scale 0 to 100): 85 | Plant response rating, Ducksalad (ducksalad; 250 g ai/ha, scale 0 to 100): 85 | Plant response rating, Barnyardgrass (barnyardgrass [17]; [24]): 0 | Plant response rating, Barnyardgrass (barnyardgrass [17]; [25]): 0 | Plant response rating, Barnyardgrass (barnyardgrass [17]; 125 g ai/ha, scale 0 to 100): 0 | Plant response rating, Barnyardgrass (barnyardgrass [17]; 250 g ai/ha, scale 0 to 100): 20
